The term IC50 denotes the concentration that inhibits the measured activity by half.

This is an account of results in patent publication US9850283B2, “Macrocyclic inhibitors of the PD-1/PD-L1 and CD80(B7-1)/PD-L1 protein/protein interactions” (BRISTOL-MYERS SQUIBB COMPANY, priority 2013, dated 2017).

The target of experiment [1] is T1, LK35.2-hPD-L1 cells / PE-labeled PD-1-Ig (Homo sapiens, UniProt Q9NZQ7).
T1 construct: expressed in transfected cells; host or cells: LK35.2 mouse B cell line
The experiment in a line: LK35.2-hPD-L1 cell binding high-content screening assay. In kind it is cell-based. Conditions: cluster symbol; cell line of CBA not given (LK35.2-hPD-L1 or 293T-hPD-L1); read-out: CBA IC50 cluster. The essentials: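 Fluorescent PD-1-Ig binding to PD-L1-expressing LK35.2 cells, imaged after washing. Conditions: 1 nM PE-PD-1-Ig, 37 °C, 1 h, RPMI with 10% fetal calf serum.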

A further experiment has as its target T2, Human PD-L1/PD-1 (Homo sapiens, UniProt Q9NZQ7).
T2 construct: made in house; host or cells: HEK293T
The experiment in a line: HTRF PD-1-Ig/PD-L1-His binding assay (human PD-L1). Conditions: cluster symbol; read-out: HTRF IC50 cluster. A digest of the protocol: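 Readout: time-resolved FRET between Eu cryptate-labeled anti-Ig (1 nM final) and APC-labeled anti-His (20 nM final) antibodies. These detect interaction of Fc-fused PD-1 with His-tagged human PD-L1 in dPBS containing 0.1% BSA and 0.05% Tween-20.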

Molecules are shown by their SMILES. Positions of bridges follow the written chain, without caps; N, C: chain ends. Non-standard residues stand in square brackets, D forms with d. Residues, ends and D or L forms follow the SMILES beside them. Ala(indol-4-yl) = N[C@@H](Cc1cccc2[nH]ccc12)C(=O)O; Phe(4-F) = N[C@@H](Cc1ccc(F)cc1)C(=O)O; Bta = N[C@@H](Cc1csc2ccccc12)C(=O)O; NMeF = CN[C@@H](Cc1ccccc1)C(=O)O; NMeE = CN[C@@H](CCC(=O)O)C(=O)O; NMeNle = CCCC[C@H](NC)C(=O)O; Sar = CNCC(=O)O

T1 sequence (Q9NZQ7 19-290): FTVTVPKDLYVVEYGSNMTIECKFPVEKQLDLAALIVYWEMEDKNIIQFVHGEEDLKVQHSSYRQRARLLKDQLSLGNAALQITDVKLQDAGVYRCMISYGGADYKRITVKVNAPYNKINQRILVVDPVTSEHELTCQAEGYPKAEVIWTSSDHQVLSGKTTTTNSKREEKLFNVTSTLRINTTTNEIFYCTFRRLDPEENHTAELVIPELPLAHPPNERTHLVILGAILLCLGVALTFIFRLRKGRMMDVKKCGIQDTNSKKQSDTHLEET
T2 sequence (Q9NZQ7 with tags, fused parts or gaps): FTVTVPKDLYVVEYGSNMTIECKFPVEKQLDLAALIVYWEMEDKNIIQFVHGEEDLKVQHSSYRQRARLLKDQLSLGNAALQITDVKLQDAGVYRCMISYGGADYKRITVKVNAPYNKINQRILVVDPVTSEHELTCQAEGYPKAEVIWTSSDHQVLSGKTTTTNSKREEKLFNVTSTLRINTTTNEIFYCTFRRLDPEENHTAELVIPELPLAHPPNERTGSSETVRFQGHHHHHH

For the compound `CCCC[C@H]1C(=O)N2CCC[C@H]2C(=O)N[C@@H](CC(=O)O)C(=O)N[C@@H](C(C)C)C(=O)N(C)[C@@H](Cc2ccccc2)C(=O)N[C@@H](Cc2ccc(O)cc2)C(=O)N2CCC[C@H]2C(=O)N[C@@H](Cc2c[nH]c3ccccc23)C(=O)N[C@@H](Cc2ccc(O)cc2)C(=O)N[C@@H](CC(C)C)C(=O)N[C@H](C(=O)NCC(N)=O)CSCC(=O)N[C@@H](Cc2ccccc2)C(=O)N(C)[C@@H](Cc2ccccc2)C(=O)N1C` [Example 3070] (HELM PEPTIDE1{[O=C(C[*:3])[*:2]].F.[meF].[CCCC[C@@H](C(=O)[*:2])N(C)[*:1]].P.D.V.[meF].Y.P.W.Y.L.C.G.[am]}$PEPTIDE1,PEPTIDE1,1:R3-14:R3$$$V2.0), the IC50 in experiment [1] was greater than 74.3 nM; at Human PD-L1/PD-1, greater than 30.5 nM.
The like results for `CCCC[C@H]1C(=O)N(C)CC(=O)N[C@@H](CC(=O)O)C(=O)N[C@@H](C(C)C)C(=O)N(C)[C@@H](Cc2ccccc2)C(=O)N[C@@H](Cc2ccc(O)cc2)C(=O)N(C)CC(=O)N[C@@H](Cc2cccc3[nH]ccc23)C(=O)N[C@@H](Cc2ccc(O)cc2)C(=O)N[C@@H](CC(C)C)C(=O)N[C@H](C(=O)NCC(N)=O)CSCC(=O)N[C@@H](Cc2ccccc2)C(=O)N(C)[C@@H](Cc2ccccc2)C(=O)N1C` [Example 3071] ({CH2CO}-F[NMeF][NMeNle][Sar]DV[NMeF]Y[Sar][Ala(indol-4-yl)]YLCG-NH2; thioether N-13) were, in that order, 4.78 to 72.9 nM and 6.76 to 30.3 nM.
The corresponding values for `CCCC[C@H]1C(=O)N(C)CC(=O)N[C@@H](CC(=O)O)C(=O)N[C@@H](C(C)C)C(=O)N(C)[C@@H](Cc2ccccc2)C(=O)N[C@@H](Cc2ccc(O)cc2)C(=O)N(C)CC(=O)N[C@@H](CCC(=O)O)C(=O)N[C@@H](Cc2ccc(O)cc2)C(=O)N[C@@H](CC(C)C)C(=O)N[C@H](C(=O)NCC(N)=O)CSCC(=O)N[C@@H](Cc2ccccc2)C(=O)N(C)[C@@H](Cc2ccccc2)C(=O)N1C` [Example 3072] (HELM PEPTIDE1{[O=C(C[*:3])[*:2]].F.[meF].[CCCC[C@@H](C(=O)[*:2])N(C)[*:1]].[Sar].D.V.[meF].Y.[Sar].E.Y.L.C.G.[am]}$PEPTIDE1,PEPTIDE1,1:R3-14:R3$$$V2.0) are greater than 74.3 nM and greater than 30.5 nM.
With `CCCC[C@H]1C(=O)N(C)CC(=O)N[C@@H](CC(=O)O)C(=O)N[C@@H](C(C)C)C(=O)N(C)[C@@H](Cc2ccccc2)C(=O)N[C@@H](Cc2ccc(O)cc2)C(=O)N(C)[C@@H](CCC(=O)O)C(=O)N[C@@H](Cc2csc3ccccc23)C(=O)N[C@@H](Cc2ccc(O)cc2)C(=O)N[C@@H](CC(C)C)C(=O)N[C@H](C(=O)NCC(N)=O)CSCC(=O)N[C@@H](Cc2ccccc2)C(=O)N(C)[C@@H](Cc2ccccc2)C(=O)N1C` [Example 3073] ({CH2CO}-F[NMeF][NMeNle][Sar]DV[NMeF]Y[NMeE][Bta]YLCG-NH2; thioether N-13), the results for the IC50 (in experiment [1]; on Human PD-L1/PD-1) were 4.78 to 72.9 nM and 0.385 to 6.74 nM, respectively.
The like results for `CCCC[C@H]1C(=O)N(C)CC(=O)N[C@@H](CC(=O)O)C(=O)N[C@@H](C(C)C)C(=O)N(C)[C@@H](Cc2ccccc2)C(=O)N[C@@H](Cc2ccc(O)cc2)C(=O)N(C)CC(=O)N[C@@H](Cc2csc3ccccc23)C(=O)N[C@@H](Cc2ccc(O)cc2)C(=O)N[C@@H](CCC(=O)O)C(=O)N[C@H](C(=O)NCC(N)=O)CSCC(=O)N[C@@H](Cc2ccccc2)C(=O)N(C)[C@@H](Cc2ccccc2)C(=O)N1C` [Example 3074] ({CH2CO}-F[NMeF][NMeNle][Sar]DV[NMeF]Y[Sar][Bta]YECG-NH2; thioether N-13) were, in that order, 4.78 to 72.9 nM and 6.76 to 30.3 nM.
With `CCCC[C@H]1C(=O)N(C)CC(=O)N[C@@H](CC(=O)O)C(=O)N[C@@H](C(C)C)C(=O)N(C)[C@@H](Cc2ccccc2)C(=O)N[C@@H](CCC(=O)O)C(=O)N(C)[C@@H](CCC(=O)O)C(=O)N[C@@H](Cc2c[nH]c3ccccc23)C(=O)N[C@@H](Cc2ccc(O)cc2)C(=O)N[C@@H](CCC(=O)O)C(=O)N[C@H](C(=O)NCC(N)=O)CSCC(=O)N[C@@H](Cc2ccccc2)C(=O)N(C)[C@@H](Cc2ccccc2)C(=O)N1C` [Example 3075] (HELM PEPTIDE1{[O=C(C[*:3])[*:2]].F.[meF].[CCCC[C@@H](C(=O)[*:2])N(C)[*:1]].[Sar].D.V.[meF].E.[meE].W.Y.E.C.G.[am]}$PEPTIDE1,PEPTIDE1,1:R3-14:R3$$$V2.0), the IC50 in experiment [1] is greater than 74.3 nM; at Human PD-L1/PD-1, greater than 30.5 nM.
As to `CCCC[C@H]1C(=O)N(C)CC(=O)N[C@@H](CC(=O)O)C(=O)N[C@@H](C(C)C)C(=O)N(C)[C@@H](Cc2ccccc2)C(=O)N[C@@H](Cc2ccc(O)cc2)C(=O)N(C)CC(=O)N[C@@H](Cc2c[nH]c3ccccc23)C(=O)N[C@@H](Cc2ccc(F)cc2)C(=O)N[C@@H](CC(C)C)C(=O)N[C@H](C(=O)NCC(N)=O)CSCC(=O)N[C@@H](Cc2ccccc2)C(=O)N(C)[C@@H](Cc2ccccc2)C(=O)N1C` [Example 3076] ({CH2CO}-F[NMeF][NMeNle][Sar]DV[NMeF]Y[Sar]W[Phe(4-F)]LCG-NH2; thioether N-13), the IC50 in experiment [1] lay in the range of 4.78 to 72.9 nM; at Human PD-L1/PD-1 it was 0.385 to 6.74 nM.
